Reference: patent publication US5436243A, “Aminoanthraquinone derivatives to combat multidrug resistance” (priority 1993, dated 1995)
Read-outs that look alike come from different tables or passages of the source. One block for each molecule: values may come before it.

Key:
MCF7 Adr 10 [1] = experiment: 72 hour MTT proliferation assay, reversal of drug resistance in MCF7 Adr 10; type: cell-based, human; details: [1c] 0 μM
Experimental: In 72 hour MTT proliferation assays using the following method, compounds 1b, 1c and 1d were assessed for inhibition of Vinca alkaloid and anthracycline drug resistance in MDR MCF7. Additionally, compounds 1b and 1c were assessed for potentiation of sensitivity to Vinca alkaloid and anthracycline drugs in the parental MCF7 WT cell line.
METHOD: 5000 cells per well were plated in 100 μl of IMDM containing 10% FCS and allowed to adhere overnight. The following day the cells were treated with N-substituted 1,4-diaminoanthraquinones and exposed to graded concentrations of antineoplastic agents. 50 μl of IMDM 10% FCS containing either vehicle or N-substituted 1,4-diaminoanthraquinones at 3 times the final tested concentration was added to cells at timed intervals. The plates were incubated for 2 hours at 37° C. to allow maximal cellular accumulation of N-substituted 1,4-diaminoanthraquinones. 40 μl aliquots of IMDM 10% FCS containing either vehicle or graded concentrations of antineoplastic drugs at 5 times the final concentration were added to treatment groups. Following this addition, 10 μl of IMDM 10% FCS containing either vehicle or N-substituted 1,4-diaminoanthraquinone at 5 times the final concentration was added to each group of wells. The cells were incubated for 72 hours after treatment. At this time the viable cells in each treatment group were estimated in a colorimetric assay by adding MTT and incubating the cells at 37° C. for 3-4 hours. The media in each well was aspirated and MTT formazan was solubilized in isopropyl alcohol acidified with 0.1 N HCl. The absorbance of the solubilized formazan was quantitated using a plate reader spectrophotometer. […] The concentrations of antineoplastic drugs which inhibited proliferation by 50% (IC50's) were estimated by calculating a percentage from the ratio: antineoplastic drug treated groups/control group absorbance and plotting the dose response curve on semilog paper. The IC50 was estimated from this curve. To assess the effects of inhibition of resistance by N-substituted 1,4-diaminoanthraquinones, the percentages were calculated relative to cell groups treated with resistance modifier alone and IC50's calculated as above. A reversal factor was calculated by dividing the IC50 to the antineoplastic drug alone (Control group) by the IC50 to antineoplastic drug in cells treated with resistance modifier.

MCF7 WT = experiment: Tumor cell clonogenic assay, MCF7 WT; type: cell-based, human; details: Homo sapiens
MCF7 Adr 10 [2] = experiment: Tumor cell clonogenic assay, MCF7 ADR 10; type: cell-based, human; details: for IC50: Homo sapiens, NCI/ADR-RES, read-out: Continuous Exposure IC50, MCF7 ADR 10
in vitro = details: human
Experimental: (§1) Myelosuppression is often a dose limiting side effect of chemotherapeutic agents. […] The toxicities to human granulocyte-macrophage progenitors (CFU-GM) of 1b, 1c, and VLB was assessed by measuring inhibition of CFU-GM proliferation in cultures continuously exposed to each agent alone and compared to the toxicities to sensitive and resistant MCF7 in tumor cell clonogenic assays.
(§2) METHOD: The CFLI-GM assay measures clonal proliferation of granulocyte/macrophage precursors in semisolid agar cultures. The progeny of the granulocyte/macrophage precursors remain in proximity of the progenitor cells and form colonies. Colonies which contain greater than 40 cells after 10-12 days of culture are counted using an inverted phase contrast microscope. The tumor cell clonogenic assays measure clonal proliferation of tumor cells. In this assay, 300-500 cells are plated in 10 cm^2 wells, allowed to adhere overnight, and are treated the following day. Tumor cell colonies were counted after 10-12 days of culture. The times of exposure in these experiments are similar; however, the concentrations of FCS are 20% in the CFU-GM assay and 10% in the tumor cell clonogenic assays. The IC50's are calculated as described above for the MTT proliferation assays. (See Example 4).
(§3) To facilitate this comparison, a CFLI-GM toxicity index was calculated by dividing the CFU-GM IC50 by the respective tumor cell clonogenic IC50's in sensitive and resistant cells.

[3] = test system: granulocyte-macrophage progenitors (CFU-GM); experiment: in vitro; details: for IC50: Homo sapiens, CFU-GM, read-out: Continuous Exposure IC50, CFU-GM
Experimental: as §1, §2, §3

[4] = test system: renal cell carcinoma cell lines, A704, SKRC7 and UOK-39
[5] = biological target: P-glycoprotein in MCF7 Adr 10 membrane vesicles (Homo sapiens, UniProt P08183); details: MCF7 Adr 10 vesicles
[6] = test system: MCF7 Adr 10 human breast cancer cells; experiment: Time course of accumulation of anthraquinones in cells; type: cell-based; details: 25 μM, 37° C., MCF7 Adr 10 cells
Experimental: (§4) METHOD: Near confluent monolayers of MCF7 ADR 10 were washed 2 times with Dulbecco's Phosphate Buffered Saline (DPBS) and 1 ml of Iscove's Modified Dulbecco's Medium (IMDM) was added to each well. The monolayers were treated with 25 μM 1b or 1c and incubated at 37° C. After incubating the samples for the times indicated in FIG. 1, the monolayers were washed three times with DPBS and detached using 1 ml of Trypsin-EDTA.An aliquot of the cell suspension was counted using a Coulter Counter and a 0.8 ml aliquot was extracted in a Bligh-Dyer extraction (Bligh et at., Can. J. Biochem. 31:911-916 (1959)). The absorbance of the lower chloroform phase was measured at 648 nm and 600 nm using a spectrophotometer. The amount of 1b or 1c present in the extract was quantitated from a standard curve performed in cell extracts. The data is expressed as nmol anthraquinone/10^6 cells.

[7] = Partition in Bligh-Dyer extracts; type: physicochemical; details: Bligh-Dyer extracts of treated cells
Experimental: as §4, with “At these wavelengths, there was minimal absorbance by cellular components contained in the chloroform phase. […] METHOD:” for “METHOD:”, “Near confluent monolayers of MCF7 ADR 10 were washed 2 times with Dulbecco's Phosphate Buffered Saline (DPBS) and 1 ml of Iscove's Modified Dulbecco's Medium (IMDM) was added to each well.” left out

PKC [8] = experiment: Micellar PKC screening assay; type: biochemical
Source text: The N-substituted diaminoanthraquinone, 1b, (1,4-bis-[[3'-(diethylamino)propyl]amino]anthraquinone), was identified as a PKC inhibitor in the micellar PKC screening assay and in platelets. […] Spectrophotometric analysis of 1b and lc indicated they were excellent chromophores with absorbance maxima at 648 and 600 nm in chloroform, respectively, and extinction coefficients of approximately 20,000. At these wavelengths, there was minimal absorbance by cellular components contained in the chloroform phase. These properties of 1b and 1c were utilized to determine the time course of accumulation of these compounds in MDR MCF7 Adr 10 cells.
The activities of 1a, 1b, 1c and 1d and mitoxantrone, an anthraquinone antineoplastic drug, were evaluated in vinblastine drug accumulation assays performed by the following method. […] Mitoxantrone was identified as a PKC inhibitor in miceliar PKC assays. Compound 1d (1,4-bis-[[2-(4-morpholino)ethyl]amino]anthraquinone) was only evaluated in cellular studies.

PKC [9] = experiment: PKC inhibition in platelets; type: cell-based
[10] = test system: MCF7 Adr 10 human breast cancer cells; experiment: Vinblastine accumulation assay, MCF7 Adr 10; type: cell-based
Experimental: [^3 H] vinblastine ([^3 H] VLB) was added to a final concentration of 100 nM and the cells were incubated for 2.5 hours. At this time, the cells were washed 3 times in ice cold PBS and lysed in buffer containing 0.1% Triton X-100. Net accumulation of [^3 H] vinblastine was expressed as pmol/mg protein. In [^3 H]

MDR cell lines = details: literature; cited from earlier work
[11] = test system: intrinsically resistant renal cell carcinoma cell lines; details: cited from earlier work
patients = details: human, in vivo; cited from earlier work
[12] = cfu-gm vs mcf7, CFU-GM toxicity indices

Chain of P-glycoprotein in MCF7 Adr 10 membrane vesicles (P08183 whole entry): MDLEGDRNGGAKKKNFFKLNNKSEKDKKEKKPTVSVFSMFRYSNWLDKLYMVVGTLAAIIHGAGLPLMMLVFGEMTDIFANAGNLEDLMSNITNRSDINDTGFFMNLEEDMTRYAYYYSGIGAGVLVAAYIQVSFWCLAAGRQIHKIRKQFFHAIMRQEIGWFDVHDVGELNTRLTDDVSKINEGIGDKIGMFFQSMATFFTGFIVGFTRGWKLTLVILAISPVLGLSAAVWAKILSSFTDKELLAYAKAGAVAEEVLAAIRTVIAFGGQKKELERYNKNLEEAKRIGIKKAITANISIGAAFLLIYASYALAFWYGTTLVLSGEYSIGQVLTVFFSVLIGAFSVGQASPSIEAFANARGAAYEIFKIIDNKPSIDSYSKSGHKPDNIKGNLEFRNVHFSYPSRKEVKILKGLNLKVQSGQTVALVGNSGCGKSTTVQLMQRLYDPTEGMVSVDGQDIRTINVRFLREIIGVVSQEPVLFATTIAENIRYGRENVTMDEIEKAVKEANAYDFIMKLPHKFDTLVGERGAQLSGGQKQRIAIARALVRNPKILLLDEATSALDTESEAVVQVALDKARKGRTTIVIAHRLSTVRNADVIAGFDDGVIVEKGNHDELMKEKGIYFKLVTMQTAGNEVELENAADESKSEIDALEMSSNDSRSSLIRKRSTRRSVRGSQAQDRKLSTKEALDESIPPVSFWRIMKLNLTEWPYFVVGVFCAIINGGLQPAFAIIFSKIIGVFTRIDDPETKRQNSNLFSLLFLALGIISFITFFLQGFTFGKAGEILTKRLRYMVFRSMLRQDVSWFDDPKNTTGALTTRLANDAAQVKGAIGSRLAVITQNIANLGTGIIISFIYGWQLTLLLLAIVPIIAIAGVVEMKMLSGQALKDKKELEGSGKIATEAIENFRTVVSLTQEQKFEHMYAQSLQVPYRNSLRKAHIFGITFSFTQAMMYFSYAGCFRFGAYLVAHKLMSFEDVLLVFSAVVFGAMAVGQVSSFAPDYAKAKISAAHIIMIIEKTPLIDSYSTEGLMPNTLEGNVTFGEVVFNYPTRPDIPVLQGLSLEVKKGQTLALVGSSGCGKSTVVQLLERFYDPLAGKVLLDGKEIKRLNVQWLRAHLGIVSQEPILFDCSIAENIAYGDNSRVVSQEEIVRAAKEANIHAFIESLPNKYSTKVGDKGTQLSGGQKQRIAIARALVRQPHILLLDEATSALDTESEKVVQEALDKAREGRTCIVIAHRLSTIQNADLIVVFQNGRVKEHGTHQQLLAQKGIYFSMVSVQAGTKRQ

Structure (SMILES): CC[C@]1(O)C[C@@H]2CN(CCc3c([nH]c4ccccc34)[C@@](C(=O)OC)(c3cc4c(cc3OC)N(C)[C@H]3[C@@](O)(C(=O)OC)[C@H](OC(C)=O)[C@]5(CC)C=CCN6CC[C@]43[C@@H]65)C2)C1 [VLB, reference compound]
IC50 (MCF7 Adr 10 [1]; Homo sapiens, NCI/ADR-RES, average ± SD of 3 experiments, read-out: VLB IC50): 790 nM | Reversal Factor (VLB) (MCF7 Adr 10 [1]): 1.0 | IC50 (MCF7 WT; MCF7, read-out: Continuous Exposure IC50, MCF7 WT): 0.59 nM | IC50 (MCF7 Adr 10 [2]): 210 nM | selectivity ratio (in vitro; [12]): < 1 | selectivity ratio (in vitro; cfu-gm vs mcf7 adr 10, toxicity to CFU-GM relative to MDR cells): ~1000 | toxicity to CFU-GM relative to drug sensitive WT cancer cells [3]: approximately twice as toxic to CFU-GM | IC50 [3]: 0.28 nM | vinblastine IC50 in renal lines relative to vinblastine IC50 of sensitive MCF7 [4]: 10-600 fold | effect of unlabeled VLB on [3H] VLB association [5]: inhibited by addition of unlabeled VLB

time of maximal accumulation of 1b and 1c [6]: about 2 hours | blue color partitioning with cellular phospholipids in the lower chloroform phase [7]: > 95% | IC50 (MCF7 WT; MCF7, tumor cell clonogenic assay, 10-12 days, read-out: Continuous Exposure IC50, MCF7 WT): 400 nM | IC50 (MCF7 Adr 10 [2]; tumor cell clonogenic assay, 10-12 days): 700 nM | IC50 [3]: 1400 nM
Structure (SMILES): CCN(CC)CCCNc1ccc(NCCCN(CC)CC)c2c1C(=O)c1ccccc1C2=O [Compound 1b, 1,4-bis-[[3'-(diethylamino)propyl]amino]anthraquinone]
PKC activity in micellar PKC screening assay (PKC [8]): PKC inhibitor | PKC inhibition in platelets (PKC [9]): PKC inhibitor | minimal effective concentration ([10]; Homo sapiens, NCI/ADR-RES, 100 nM [3H] VLB, 2.5 hours, FIGS. 2 and 3, read-out: lowest concentration which causes a doubling of basal accumulation of vinblastine): 25 µM | activity in vinblastine accumulation assay / drug accumulation ([10]; MDR MCF7): increase vinblastine accumulation in MDR MCF7 | drug accumulation relative to other PKC inhibitors ([10]; drug accumulation assays): significantly greater activity in drug accumulation assays than other PKC inhibitors | relative sensitivity of MCF7 WT and MDR MCF7 to cytotoxicity (MCF7 Adr 10 [2]; clonogenic assays): MCF7 WT are more sensitive to cytotoxicity of 1b than MDR MCF7 | selectivity ratio (in vitro; CFU-GM Toxicity Index (CFU-GM IC50 / Tumor Cell Clonogenic IC50)): 3.5 | selectivity ratio (in vitro; [12]): > 1 | selectivity ratio (in vitro; mcf7 vs cfu-gm, sensitivity of both tumor lines relative to CFU-GM): 2 to 3.5 | CFU-GM Toxicity Index (CFU-GM IC50 / Tumor Cell Clonogenic IC50) ([3]; human): 2.0

Structure (SMILES): CC/C(=C(\c1ccccc1)c1ccc(OCCN(C)C)cc1)c1ccccc1 [tamoxifen]
drug accumulation and reversal of resistance in MDR cell lines (MDR cell lines): can also modulate resistance of estrogen receptor-negative MDR cell lines | drug accumulation and vinblastine resistance in renal cell carcinoma [11]: increase drug accumulation and decrease vinblastine resistance | toxicity in humans (patients): minimal neurologic toxicity that was reversible with cessation of tamoxifen
